Source: the CheMixHub ionic liquid set

Test: xn = mol fraction of the nth substance listed

CCC(=O)[O-].C[NH+](C)Cc1ccccc1 + CN(C)C=O
viscosity [mPa·s], 101 kPa
Settings	293.15 K	298.15 K	303.15 K	308.15 K	313.15 K	318.15 K	323.15 K	328.15 K
x1 = 0.006283	0.957	0.915	0.878	0.846	0.817	0.79	0.767	0.745
x1 = 0.009868	0.965	0.923	0.885	0.852	0.822	0.795	0.771	0.749
x1 = 0.01556	0.974	0.93	0.893	0.858	0.828	0.8	0.776	0.753
x1 = 0.01941	0.985	0.94	0.901	0.866	0.834	0.807	0.781	0.758
x2 = 0.9599	1.036	0.986	0.94	0.9	0.865	0.834	0.806	0.781
x2 = 0.9647	1.025	0.975	0.932	0.893	0.858	0.828	0.801	0.776
x2 = 0.9703	1.012	0.964	0.922	0.884	0.851	0.821	0.794	0.77
x2 = 0.9751	0.997	0.95	0.91	0.873	0.841	0.813	0.787	0.764

CCCCCC[n+]1ccn(C)c1.F[B-](F)(F)F + CN(CCO)CCO
101 kPa
Settings	viscosity [mPa·s]
303.15 K, x2 = 0.3916	72.6
303.15 K, x2 = 0.4949	69.8
303.15 K, x2 = 0.7928	62.2
313.15 K, x2 = 0.5936	41.8
313.15 K, x2 = 0.8824	36.8
318.15 K, x2 = 0.4949	34.3

COP(=O)([O-])OC.Cn1cc[n+](C)c1 + CN(CCO)CCO + O
Settings	viscosity [mPa·s]
343.15 K, x2 = 0.4346, x3 = 0.3656	10.65

COP(=O)([O-])OC.Cn1cc[n+](C)c1 + CO
Settings	viscosity [mPa·s]
293.15 K, 101 kPa, x2 = 0.6018	20.02
293.15 K, 101 kPa, x2 = 0.8998	1.927
298.15 K, 101 kPa, x2 = 0	291
298.15 K, 101 kPa, x2 = 0.2977	86.2
298.15 K, 101 kPa, x2 = 0.3984	54.2
303.15 K, 101 kPa, x2 = 0.2009	95.3
303.15 K, 101 kPa, x2 = 0.5028	24.98
308.15 K, 101 kPa, x2 = 0.5028	21.1
308.15 K, 101.33 kPa, x2 = 0	139.5
318.15 K, 101 kPa, x2 = 0.1054	71.5
318.15 K, 101 kPa, x2 = 0.7027	5.83
323.15 K, 101 kPa, x2 = 0.2977	31.01
323.15 K, 101 kPa, x2 = 0.5028	13.63

CCCCCCCC[P+](CC)(CC)CC.O=[N+]([O-])c1cn[n-]c1 + COCCOCCOCCOCCOC
100 kPa
Settings	viscosity [mPa·s]
278.15 K, x2 = 0.503	78
283.15 K, x2 = 0	868
283.15 K, x2 = 0.404	97
288.15 K, x2 = 0	578
288.15 K, x2 = 0.102	327
303.15 K, x2 = 0.051	170
308.15 K, x2 = 0.199	69
313.15 K, x2 = 0.199	55
318.15 K, x2 = 0	94

COP(=O)([O-])OC.Cn1cc[n+](C)c1 + CS(C)=O
viscosity [mPa·s], 101 kPa
Settings	298.15 K	313.15 K	333.15 K
x1 = 0.1773	7.7	4.8	3.1
x1 = 0.4972	42.7	22.6	11.9
x1 = 0.7978	134.7	59.6	26.7

CCCCCCCCCCCCCCCC[n+]1ccccc1.O=C([O-])C(O)c1ccccc1 + C[C@H](N)C(=O)O + O
electrical conductivity [S/m], 101 kPa
Settings	293.15 K	298.15 K	303.15 K	308.15 K	313.15 K
x1 = 1.08e-06, x2 = 0	0.00061	0.00068	0.00076	0.00083	0.0009
x1 = 1.09e-06, x2 = 0.0009002	0.0006	0.00069	0.00077	0.00087	0.00098
x1 = 1.09e-06, x2 = 0.001799	0.00068	0.00078	0.00088	0.001	0.0011
x1 = 1.98e-06, x2 = 0	0.001	0.0012	0.0013	0.0014	0.0016
x1 = 2.17e-06, x2 = 0.0009002	0.00107	0.00122	0.0014	0.0015	0.0017
x1 = 2.18e-06, x2 = 0.001799	0.00104	0.0012	0.00135	0.0015	0.0017
x1 = 2.88e-06, x2 = 0	0.00147	0.0016	0.0018	0.002	0.0022
x1 = 3.26e-06, x2 = 0.0009002	0.0015	0.0017	0.0019	0.0021	0.0024
x1 = 3.45e-06, x2 = 0.001799	0.00147	0.00167	0.00187	0.0021	0.0024
x1 = 3.96e-06, x2 = 0	0.0019	0.0022	0.0024	0.0026	0.0029
x1 = 4.52e-06, x2 = 0.0009002	0.00197	0.0022	0.0025	0.0028	0.0031
x1 = 4.54e-06, x2 = 0.001799	0.0019	0.00216	0.0024	0.0027	0.003
x1 = 4.69e-06, x2 = 0	0.0023	0.0026	0.0029	0.0031	0.0035
x1 = 5.61e-06, x2 = 0.0009002	0.00243	0.00275	0.0031	0.0034	0.0038
x1 = 5.81e-06, x2 = 0.001799	0.00234	0.00265	0.0029	0.0033	0.0036
x1 = 5.95e-06, x2 = 0	0.00281	0.0032	0.0035	0.0038	0.0042
x1 = 6.87e-06, x2 = 0.0009002	0.00295	0.0033	0.0037	0.0041	0.0045
x1 = 7.21e-06, x2 = 0	0.00341	0.0038	0.0042	0.0046	0.0051
x1 = 7.26e-06, x2 = 0.001799	0.00287	0.00323	0.0036	0.004	0.0044
x1 = 8.32e-06, x2 = 0.0009002	0.00346	0.00391	0.0043	0.0048	0.0053
x1 = 8.71e-06, x2 = 0.001799	0.00335	0.00379	0.00423	0.0047	0.0052
x1 = 8.83e-06, x2 = 0	0.00406	0.0046	0.005	0.0055	0.006
x1 = 9.58e-06, x2 = 0.0009002	0.00394	0.00445	0.00497	0.0055	0.0061
x1 = 1.045e-05, x2 = 0	0.00469	0.0053	0.0058	0.0065	0.0071
x1 = 1.071e-05, x2 = 0.001799	0.0039	0.00441	0.00494	0.0055	0.0061
x1 = 1.121e-05, x2 = 0.0009002	0.00434	0.00493	0.00552	0.0062	0.0069
x1 = 1.207e-05, x2 = 0	0.00516	0.0058	0.0064	0.0071	0.0079
x1 = 1.216e-05, x2 = 0.001799	0.00419	0.00476	0.00533	0.00596	0.0067
x1 = 1.284e-05, x2 = 0.0009002	0.00475	0.0054	0.006	0.0067	0.0075
x1 = 1.351e-05, x2 = 0	0.00562	0.00631	0.007	0.0077	0.0085
x1 = 1.361e-05, x2 = 0.001799	0.00459	0.0052	0.00583	0.00654	0.0073
x1 = 1.411e-05, x2 = 0.0009002	0.00513	0.0058	0.00649	0.0072	0.0081
x1 = 1.478e-05, x2 = 0	0.00603	0.0068	0.0075	0.0083	0.0092
x1 = 1.506e-05, x2 = 0.001799	0.00495	0.00559	0.00626	0.007	0.0079
x1 = 1.519e-05, x2 = 0.0009002	0.00545	0.00616	0.0069	0.0077	0.0085
x1 = 1.622e-05, x2 = 0	0.00644	0.0072	0.008	0.0089	0.0098
x1 = 1.646e-05, x2 = 0.0009002	0.00578	0.00652	0.0073	0.0081	0.009
x1 = 1.651e-05, x2 = 0.001799	0.00526	0.00598	0.00669	0.0075	0.0083
x1 = 1.766e-05, x2 = 0	0.00687	0.0077	0.0085	0.0094	0.0104
x1 = 1.778e-05, x2 = 0.001799	0.00557	0.00629	0.00707	0.0079	0.0088

CCCCn1cc[nH+]c1.O=S(=O)([N-]S(=O)(=O)C(F)(F)F)C(F)(F)F + N
313.2 K, 101 kPa
Settings	viscosity [mPa·s]
x1 = 0.2924	9.9
x1 = 0.337	12.9
x1 = 0.4007	19.3
x1 = 0.4495	24.3
x1 = 0.477	27.7
x1 = 0.4904	29.1
x1 = 0.575	38.7
x1 = 0.6515	45.8
x1 = 0.7028	51.3
x1 = 0.7906	54.5
x1 = 0.8999	52.5
x1 = 1	47.2

C[S+](C)C.O=S(=O)([N-]S(=O)(=O)C(F)(F)F)C(F)(F)F + N#CCCCC#N
101 kPa, x1 = 0.2085
Settings	viscosity [mPa·s]
278 K	21.84
303 K	9.44
318 K	6.433
328 K	5.159
333 K	4.664
338 K	4.238
348 K	3.558

CCCCCC[n+]1ccn(C)c1.F[B-](F)(F)F + NC(N)=O + O
298.15 K, 100 kPa
Settings	viscosity [mPa·s]
x2 = 0, x1 = 0.0153	2.79
x2 = 0.008814, x3 = 0.9759	2.96
x2 = 0.01758, x3 = 0.9671	2.88
x2 = 0.02591, x3 = 0.9588	2.91
x2 = 0.03448, x3 = 0.9502	2.92
x2 = 0.04235, x3 = 0.9424	2.94
